Source: US10668049B2, “Methods of treating cognitive decline with transforming growth factor beta inhibitors” (The Regents of the University of California, priority 2008, dated 2020)

Key:
neocortical slices = assay: Field potential recordings of epileptiform activity in neocortical slices; type: cell-based, rat
Protocol: Brain slices for the in vitro experiments were prepared by means of standard techniques (Ivens et al., 2007; Pavlovsky et al., 2003; Seiffert et al., 2004). Slices were transferred to a recording chamber where they were incubated in aCSF containing BSA (6.7 mg/ml), TGF-β1 (10 ng/ml) or artificial serum (aSerum, composition based on aCSF with the following changes, composition in mM: 0.8 MgSO4, 1.3 CaCl2, 5.7 KCl, 1 L-glutamine, 0.1 albumin). To block the activity of TGF-β1, slices were incubated in aCSF containing SB431542 (10 μM) before the addition of TGF-β1 (10 ng/ml). To block TGF-βRs, slices were incubated in aCSF containing SB431542 (10 μM) and TGF-βRII antibody (10 μg/ml) for 30 min followed by incubation in BSA in the presence of TGF-βR blockers. For detection of epileptiform activity, field potentials were recorded >4 h following incubation in cortical layer IV using extracellular glass microelectrodes (˜3 MΩ) in response to bipolar stimulation at the border of white and grey matter.
To assess the hypothesis that activation of the TGF-β signaling pathway is the mechanism underlying albumin-induced epileptogenesis, we activated this pathway directly by incubating neocortical slices with TGF-β1 (10 ng/mL) in artificial cerebrospinal fluid (aCSF) and performed electrophysiological recordings. These recordings were compared to those of slices treated with a solution containing serum levels of electrolytes and 0.1 mM albumin (aSERUM, previously shown to induce epileptogenesis; Ivens et al., 2007), albumin in aCSF, or aCSF (control). […] When albumin was added to the control aCSF solution, epileptiform activity was recorded in response to stimulation of the white matter (n=8 out of 12 slices, 6 animals). Importantly. TGF-β1 treatment was sufficient to recapitulate epileptiform activity similar to that seen following treatment with aSERUM and albumin in aCSF (n=5 out of 5 slices, 4 animals; n=7 out of 9 slices, 3 animals; and n=8 out of 12 slices, 6 animals, respectively). In all three cases, the evoked epileptiform activity, was all-or-none in nature, paroxysmal and prolonged, similar to that seen following BBB opening with bile salts (Ivens et al., 2007; Seiffert et al., 2004) and typical to that observed in acute models of epilepsy (Gutnick et al., 1982).
To further confirm that the TGF-β1 induced epileptiform activity was dependent on the TGF-βR mediated pathway, we performed additional trials of the above experiments in the presence of two TGF-βR blockers (SB431542, the TGF-βRI kinase activity inhibitor and TGF-βRII antibody).

[1] = biological target: T1, astrocyte specific glutamate transporter, SLC1A2 (Rattus norvegicus, UniProt P31596); assay: Whole cell patch recording of NMDA-mediated EPSCs in cortical pyramidal neurons; type: cell-based; conditions: DHK 100 μM
T1 construct: In vitro intracellular recordings were obtained from pyramidal neurons (layer 2-3) 23-28 h following the in vivo treatment; from tissue; host or cells: acute rat neocortical slices (astrocytic transporter; recordings from layer 2-3 pyramidal neurons)
Protocol: In vitro intracellular recordings were obtained from pyramidal neurons (layer 2-3) 23-28 h following the in vivo treatment with albumin or from control rats. Currents were recorded using the whole cell patch configuration, as described previously (Pavlovsky et al., 2003). In brief, glass pipettes were pulled from capillaries using a vertical puller (Narashige, Greenvale, N.Y.) and filled with a solution comprising (in mM): 150 CsCl, 1 MgCl2, 10 HEPES, 4 Na2ATP, 0.1 CaCl2, and 1.1 mM EGTA, pH adjusted to 7.2 with a final osmolarity of 290-310 mOsm. Cells were visualized using infrared differential interference phase contrast video-microscopy. Recordings were performed using AxoPatch 700B (Axon Instruments, Foster City, Calif.), digitized at 10 kHz and recorded using pClamp 9.2 (Axon Instruments, Foster City, Calif.). Patch pipette's resistance was 4-5 MΩ. Series resistance was not electronically compensated; however, cells in which series resistance varied by more than 25% were excluded from the analysis. Stimulation protocols were started at least 5 min following impalement to allow intracellular dialysis with the pipette solution. Excitatory post-synaptic currents (EPSCs) were evoked—using a bipolar stimulating electrode positioned <200 μm from the recorded cell—at 75% of the intensity producing maximal EPSCs. N-methyl-D-aspartic acid (NMDA) currents were recorded in the presence of blockers of α-amino-3-hydroxy-5-methyl-4-isoxazole-propionic acid (AMPA)/kainate (i.e., 30 μM CNQX) and of gamma-aminobutyric acid A (GABAA) receptors (i.e., 10 μM bicuculine methiodide). Cells were voltage clamped to +40 mV to alleviate NMDA receptor blockade and inactivate fast Na^+ currents. In some experiments, dihydrokainic acid (DHK, Tocris, Bristol, UK), 100 μM, was added to the extracellular solution to selectively block the astrocyte specific glutamate transporter, SLC1A2 (see Arriza et al., 1994).
To confirm that the transcriptional changes induced by albumin were associated with altered cellular functions, the clearance of extracellular glutamate and potassium in cortical slices 24 hours following albumin treatment in vivo was investigated. To measure synaptic glutamate levels during neuronal activation, the slowly inactivating (Lester et al., 1990) NMDA currents in cortical neurons were recorded by using the whole-cell patch configuration (in the presence of non-NMDA glutamate and GABA receptor blockers, see Methods). Cells were clamped at +40 mV to prevent a potential confounding effect of post-synaptic depolarization due to the accumulation of synaptic [K^+]o. […] Synaptic glutamate elicited by 50 extracellular stimulations at 2, 5, 10, 20, 50 and 100 Hz before and after adding the astrocytic SLC1A2 specific inhibitor, DHK was measured. In neurons from control animals, DHK had no effect on single EPSCs or EPSCs elicited at low stimulation frequencies (<20 Hz). […] The same experiments were then repeated 24 h following cortical application of albumin (i.e. during epileptogenesis). In contrast to the control experiments, DHK had no effect on EPSC amplitude in treated slices (FIG. 13b-c, right), supporting reduced expression of the astrocytic transporter SLC1A2.

[2] = test system: albumin-induced epileptogenesis; assay: EEG recording from awake rats during albumin-induced epileptogenesis; type: in vivo, rat

T1 sequence (P31596 whole entry): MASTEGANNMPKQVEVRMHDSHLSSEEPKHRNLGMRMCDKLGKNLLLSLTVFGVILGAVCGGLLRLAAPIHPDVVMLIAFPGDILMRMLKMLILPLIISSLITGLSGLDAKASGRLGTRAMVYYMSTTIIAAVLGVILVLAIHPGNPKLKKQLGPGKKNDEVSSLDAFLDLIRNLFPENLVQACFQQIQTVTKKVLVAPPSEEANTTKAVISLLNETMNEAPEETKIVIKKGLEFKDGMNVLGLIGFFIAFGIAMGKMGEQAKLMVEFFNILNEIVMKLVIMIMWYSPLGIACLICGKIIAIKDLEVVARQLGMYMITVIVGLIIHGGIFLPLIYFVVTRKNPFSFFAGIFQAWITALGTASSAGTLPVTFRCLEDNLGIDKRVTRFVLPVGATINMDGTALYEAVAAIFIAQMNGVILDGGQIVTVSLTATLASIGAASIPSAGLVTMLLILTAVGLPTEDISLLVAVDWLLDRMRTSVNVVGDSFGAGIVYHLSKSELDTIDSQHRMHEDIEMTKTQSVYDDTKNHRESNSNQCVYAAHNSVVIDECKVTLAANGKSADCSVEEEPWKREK

TGF-β1: TGF-β1 (10 ng/ml, Peprotech), used to activate the TGF-β pathway
integral of the field potential (neocortical slices; inducer alone, without TGF-βR blockers): 84.1±20.1 mV*ms
evoked epileptiform activity in response to stimulation of the white matter, slices showing it (neocortical slices; slices incubated with the inducer): 5 out of 5

CC(C)[C@H]1CN[C@H](C(=O)O)[C@H]1CC(=O)O [DHK, dihydrokainic acid, reference compound]
effect on NMDA currents at stimulation frequencies >20 Hz ([1]; neurons from control animals): increased NMDA currents
effect on single EPSCs or EPSCs elicited at low stimulation frequencies (<20 Hz) ([1]; neurons from control animals): no effect
effect on EPSC amplitude ([1]; slices 24 h following cortical application of albumin): no effect

CCCCc1nc(Cl)c(CO)n1Cc1ccc(-c2ccccc2-c2nnn[nH]2)cc1.[K] [Losartan, 2-butyl-4-chloro-1-[p-(o-1H-tetrazol-5-ylphenyl)benzyl]imidazole-5-methanol, monopotassium salt, reference compound]
number of seizure like events (SLEs) ([2]; losartan-treated rats (n=7) compared to BSA-treated ones (n=8)): significantly smaller
albumin-induced EEG changes (signal harmony, complexity) during epileptogenesis ([2]; single, focal application together with BSA, 10 μM): reversed the albumin-induced EEG changes
